Data reported in patent US10758534B2 (Vertex Pharmaceuticals Incorporated, priority 2014, dated 2020).

Target: T1, F508del (Homo sapiens, UniProt P13569, DEL508-508)
T1 construct: expressed in transfected cells
Experiment: Protocol 2: FRET membrane potential optical assay (VIPR), identification of correction compounds
Format: cell-based
Settings: Table 3; compounds of Table 1 as modulators of CFTR activity; protocol not stated
How it was run: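 Single-addition HTS format: F508del-expressing NIH3T3 cells pre-incubated 16 hrs at 37° C. ± compound, with 27° C. culture as positive control. Channel activation by forskolin 10 μM and genistein 20 μM upon switch to gluconate bath, pH 7.4; read-out is FRET-based depolarization signal.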

T1 sequence (P13569 with tags, fused parts or gaps DEL508-508): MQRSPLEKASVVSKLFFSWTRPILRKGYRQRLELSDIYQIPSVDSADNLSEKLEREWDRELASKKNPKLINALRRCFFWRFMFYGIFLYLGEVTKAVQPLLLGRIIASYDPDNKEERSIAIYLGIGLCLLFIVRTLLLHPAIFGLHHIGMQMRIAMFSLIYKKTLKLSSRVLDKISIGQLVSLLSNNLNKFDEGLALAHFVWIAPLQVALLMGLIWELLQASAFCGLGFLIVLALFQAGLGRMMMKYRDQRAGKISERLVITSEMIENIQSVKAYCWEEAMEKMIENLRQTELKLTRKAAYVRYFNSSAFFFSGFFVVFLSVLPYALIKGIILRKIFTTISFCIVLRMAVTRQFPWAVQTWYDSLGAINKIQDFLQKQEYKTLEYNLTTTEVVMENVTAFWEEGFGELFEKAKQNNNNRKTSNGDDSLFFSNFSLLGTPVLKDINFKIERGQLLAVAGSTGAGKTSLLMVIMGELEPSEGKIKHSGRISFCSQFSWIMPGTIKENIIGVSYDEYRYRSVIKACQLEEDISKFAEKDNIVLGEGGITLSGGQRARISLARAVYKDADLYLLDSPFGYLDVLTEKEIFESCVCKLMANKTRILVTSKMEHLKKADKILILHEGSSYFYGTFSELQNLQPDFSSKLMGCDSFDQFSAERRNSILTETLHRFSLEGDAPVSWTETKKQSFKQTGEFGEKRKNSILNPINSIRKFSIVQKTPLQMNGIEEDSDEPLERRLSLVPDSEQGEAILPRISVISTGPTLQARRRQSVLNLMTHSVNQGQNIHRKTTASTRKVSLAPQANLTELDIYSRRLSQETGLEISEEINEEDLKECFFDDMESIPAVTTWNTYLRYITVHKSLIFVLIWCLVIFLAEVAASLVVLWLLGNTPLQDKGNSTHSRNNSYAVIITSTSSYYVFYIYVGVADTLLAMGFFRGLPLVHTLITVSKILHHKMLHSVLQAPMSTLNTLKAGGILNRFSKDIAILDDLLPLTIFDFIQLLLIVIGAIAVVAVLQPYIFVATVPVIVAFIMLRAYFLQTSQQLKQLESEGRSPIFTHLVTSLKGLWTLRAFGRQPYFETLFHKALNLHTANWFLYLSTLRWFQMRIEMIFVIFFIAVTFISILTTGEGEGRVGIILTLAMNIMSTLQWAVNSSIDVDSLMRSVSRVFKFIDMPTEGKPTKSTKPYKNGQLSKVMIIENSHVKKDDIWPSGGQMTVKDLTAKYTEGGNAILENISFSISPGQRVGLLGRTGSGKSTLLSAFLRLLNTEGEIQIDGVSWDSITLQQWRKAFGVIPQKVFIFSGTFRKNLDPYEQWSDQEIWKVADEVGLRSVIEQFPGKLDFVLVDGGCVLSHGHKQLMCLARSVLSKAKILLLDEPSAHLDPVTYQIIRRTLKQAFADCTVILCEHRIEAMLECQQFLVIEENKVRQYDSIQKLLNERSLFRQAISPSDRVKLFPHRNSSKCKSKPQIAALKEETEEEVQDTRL

Structure (SMILES)	EC30
Cc1cc(C#N)cc(C)c1Oc1nc(C(C)(C)C)ccc1C(=O)NS(=O)(=O)c1cccc(N)c1 [Compound 111, N-(3-aminophenyl)sulfonyl-6-tert-butyl-2-(4-cyano-2,6-dimethyl-phenoxy)pyridine-3-carboxamide]	+++ (“+++” means <3 uM)
Cc1cc(C)c(Cn2c(C(=O)NS(=O)(=O)c3ccccc3O)cc3ccccc32)c(C)c1 [Compound 112, N-(2-hydroxyphenyl)sulfonyl-1-[(2,4,6-trimethylphenyl)methyl]indole-2-carboxamide]	+++ (“+++” means <3 uM)
Cc1cc(C)c(Oc2nc(C(C)(C)C)ccc2C(=O)NS(=O)(=O)c2cc[nH]c(=O)c2)c(C)c1 [Compound 113, 6-tert-butyl-N-[(2-oxo-1H-pyridin-4-yl)sulfonyl]-2-(2,4,6-trimethylphenoxy)pyridine-3-carboxamide]	++ (“++” means between 3 uM and 10 uM)
CC(C)Oc1ccc(-c2ccc(C(=O)NS(=O)(=O)c3cccc(N)n3)c(N3CCCC(C(C)C)C3)n2)cn1 (centres unmarked) [Compound 114, N-[(6-amino-2-pyridyl)sulfonyl]-6-(6-isopropoxy-3-pyridyl)-2-(3-isopropyl-1-piperidyl)pyridine-3-carboxamide]	+++ (“+++” means <3 uM)
COc1ccccc1S(=O)(=O)NC(=O)c1ccc(C(C)(C)C)nc1Oc1c(C)cc(C)cc1C [Compound 115, 6-tert-butyl-N-(2-methoxyphenyl)sulfonyl-2-(2,4,6-trimethylphenoxy)pyridine-3-carboxamide]	+++ (“+++” means <3 uM)
COc1ccc2cc(C(=O)NS(=O)(=O)c3cccc(N)c3)n(Cc3c(C)cccc3C)c2c1 [Compound 116, N-(3-aminophenyl)sulfonyl-1-[(2,6-dimethylphenyl)methyl]-6-methoxy-indole-2-carboxamide]	++ (“++” means between 3 uM and 10 uM)
Cc1cc(C)c(Oc2nc(C(C)(C)C)ccc2C(=O)NS(=O)(=O)c2ccncc2)c(C)c1 [Compound 117, 6-tert-butyl-N-(4-pyridylsulfonyl)-2-(2,4,6-trimethylphenoxy)pyridine-3-carboxamide]	+++ (“+++” means <3 uM)
Cc1cc(C)c(Cn2c(C(=O)NS(=O)(=O)c3cccc(N)c3)c(C)c3ccccc32)c(C)c1 [Compound 118, N-(3-aminophenyl)sulfonyl-3-methyl-1-[(2,4,6-trimethylphenyl)methyl]indole-2-carboxamide]	++ (“++” means between 3 uM and 10 uM)
Cc1cccc(C)c1Cn1nc(-c2ccc(C(F)F)cc2)cc1C(=O)NS(=O)(=O)c1ccccc1 [Compound 119, N-(benzenesulfonyl)-5-[4-(difluoromethyl)phenyl]-2-[(2,6-dimethylphenyl)methyl]pyrazole-3-carboxamide]	+++ (“+++” means <3 uM)
COc1cccc2c1cc(C(=O)NS(=O)(=O)c1cccc(N)c1)n2Cc1c(C)cc(C)cc1C [Compound 120, N-(3-aminophenyl)sulfonyl-4-methoxy-1-[(2,4,6-trimethylphenyl)methyl]indole-2-carboxamide]	+++ (“+++” means <3 uM)
Cc1cc(C)c(CN2Cc3ccccc3C2C(=O)NS(=O)(=O)c2ccc(N)cc2)c(C)c1 (centres unmarked) [Compound 121, N-(4-aminophenyl)sulfonyl-2-[(2,4,6-trimethylphenyl)methyl]isoindoline-1-carboxamide]	++ (“++” means between 3 uM and 10 uM)
COc1ncccc1-c1cc(C(=O)NS(=O)(=O)c2cccc(N)c2)n(Cc2c(C)cc(C)cc2C)n1 [Compound 122, N-(3-aminophenyl)sulfonyl-5-(2-methoxy-3-pyridyl)-2-[(2,4,6-trimethylphenyl)methyl]pyrazole-3-carboxamide]	++ (“++” means between 3 uM and 10 uM)
Cc1cc(C)c(Cn2nc(C(C)(C)C)cc2C(=O)NS(=O)(=O)c2cccc(N)c2C)c(C)c1 [Compound 123, N-(3-amino-2-methyl-phenyl)sulfonyl-5-tert-butyl-2-[(2,4,6-trimethylphenyl)methyl]pyrazole-3-carboxamide]	+++ (“+++” means <3 uM)
Cc1cc(C)c(Oc2nc(C)c(C#N)cc2C(=O)NS(=O)(=O)c2cccc(N)c2)c(C)c1 [Compound 124, N-(3-aminophenyl)sulfonyl-5-cyano-6-methyl-2-(2,4,6-trimethylphenoxy)pyridine-3-carboxamide]	++ (“++” means between 3 uM and 10 uM)
Cc1cc(C)c(Oc2nc(-c3cccc(OCC(C)C)c3)ccc2C(=O)NS(=O)(=O)c2ccc[nH]c2=O)c(C)c1 [Compound 125, 6-(3-isobutoxyphenyl)-N-[(2-oxo-1H-pyridin-3-yl)sulfonyl]-2-(2,4,6-trimethylphenoxy)pyridine-3-carboxamide]	++ (“++” means between 3 uM and 10 uM)
Cc1cc(C)c(CN2Cc3ccccc3[C@H]2C(=O)NS(=O)(=O)c2cccc(N)c2)c(C)c1 [Compound 126, (1S)—N-(3-aminophenyl)sulfonyl-2-[(2,4,6-trimethylphenyl)methyl]isoindoline-1-carboxamide]	+++ (“+++” means <3 uM)

Structure (SMILES)	EC30
Cc1cc(C)c(Cn2c(C(=O)NS(=O)(=O)c3ccccc3)cc3c(Cl)cccc32)c(C)c1 [Compound 127, N-(benzenesulfonyl)-4-chloro-1-[(2,4,6-trimethylphenyl)methyl]indole-2-carboxamide]	+++ (“+++” means <3 uM)
Cc1cccc(C)c1Cn1nc(-c2ccccc2N(C)C)cc1C(=O)NS(=O)(=O)c1ccccc1 [Compound 128, N-(benzenesulfonyl)-5-[2-(dimethylamino)phenyl]-2-[(2,6-dimethylphenyl)methyl]pyrazole-3-carboxamide]	+++ (“+++” means <3 uM)
CC(C)(C)c1ccc(C(=O)NS(=O)(=O)c2cccc(N)c2)c(-c2ccc(C(F)(F)F)cc2)n1 [Compound 129, N-(3-aminophenyl)sulfonyl-6-tert-butyl-2-[4-(trifluoromethyl)phenyl]pyridine-3-carboxamide]	++ (“++” means between 3 uM and 10 uM)
CC(C)(C)c1ccc(C(=O)NS(=O)(=O)c2ccccc2)c(OCc2ccccc2)n1 [Compound 130, N-(benzenesulfonyl)-2-benzyloxy-6-tert-butyl-pyridine-3-carboxamide]	+++ (“+++” means <3 uM)
Cc1cc(C)c(Oc2nc(C(C)(C)C)ccc2C(=O)NS(=O)(=O)c2ccccc2O)c(C)c1 [Compound 131, 6-tert-butyl-N-(2-hydroxyphenyl)sulfonyl-2-(2,4,6-trimethylphenoxy)pyridine-3-carboxamide]	+++ (“+++” means <3 uM)
Cc1cc(C)c(Oc2nc(-c3ccc(C(F)(F)F)nc3)ccc2C(=O)NS(=O)(=O)c2cccc(N)n2)c(C)c1 [Compound 132, N-[(6-amino-2-pyridyl)sulfonyl]-6-[6-(trifluoromethyl)-3-pyridyl]-2-(2,4,6-trimethylphenoxy)pyridine-3-carboxamide]	+++ (“+++” means <3 uM)
Cc1cccc(C)c1Cn1nc(-c2cccc(OC(C)C)c2)cc1C(=O)NS(=O)(=O)c1ccccc1 [Compound 133, N-(benzenesulfonyl)-2-[(2,6-dimethylphenyl)methyl]-5-(3-isopropoxyphenyl)pyrazole-3-carboxamide]	+++ (“+++” means <3 uM)
Cc1cc(C)c(Cn2c(C(=O)NS(=O)(=O)c3ccc(N)cc3)cc3ccccc32)c(C)c1 [Compound 134, N-(4-aminophenyl)sulfonyl-1-[(2,4,6-trimethylphenyl)methyl]indole-2-carboxamide]	+++ (“+++” means <3 uM)
COc1ccc(-c2cc(C(=O)NS(=O)(=O)c3ccccc3)n(Cc3c(C)cccc3C)n2)c(OC)c1 [Compound 135, N-(benzenesulfonyl)-5-(2,4-dimethoxyphenyl)-2-[(2,6-dimethylphenyl)methyl]pyrazole-3-carboxamide]	+++ (“+++” means <3 uM)
Cc1cc(C)c(Oc2nc(-c3ccc(Cl)c(OCC(C)C)c3)ccc2C(=O)NS(=O)(=O)c2ccc[nH]c2=O)c(C)c1 [Compound 136, 6-(4-chloro-3-isobutoxy-phenyl)-N-[(2-oxo-1H-pyridin-3-yl)sulfonyl]-2-(2,4,6-trimethylphenoxy)pyridine-3-carboxamide]	+++ (“+++” means <3 uM)
Cc1cc(C)c(Cn2c(C(=O)NS(=O)(=O)c3ccccc3)cc3cc(Cl)ccc32)c(C)c1 [Compound 137, N-(benzenesulfonyl)-5-chloro-1-[(2,4,6-trimethylphenyl)methyl]indole-2-carboxamide]	+++ (“+++” means <3 uM)
C[C@@H](c1ccccc1)n1nc(C(C)(C)C)cc1C(=O)NS(=O)(=O)c1cccc(N)c1 [Compound 138, N-(3-aminophenyl)sulfonyl-5-tert-butyl-2-[(1S)-1-phenylethyl]pyrazole-3-carboxamide]	++ (“++” means between 3 uM and 10 uM)
Cc1cc(C)c(CN2CC(C)(C)c3ccccc3C2C(=O)NS(=O)(=O)c2cccc(N)n2)c(C)c1 (centres unmarked) [Compound 140, N-[(6-amino-2-pyridyl)sulfonyl]-4,4-dimethyl-2-[(2,4,6-trimethylphenyl)methyl]-1,3-dihydroisoquinoline-1-carboxamide]	+++ (“+++” means <3 uM)
Cc1cc(C)c(Oc2nc(C(C)(C)C)cnc2C(=O)NS(=O)(=O)c2cccc(N)c2)c(C)c1 [Compound 141, N-(3-aminophenyl)sulfonyl-5-tert-butyl-3-(2,4,6-trimethylphenoxy)pyrazine-2-carboxamide]	+++ (“+++” means <3 uM)
Cc1cc(C)c(Cn2c(C(=O)NS(=O)(=O)c3cccc(N)c3)cc3ccc(F)cc32)c(C)c1 [Compound 142, N-(3-aminophenyl)sulfonyl-6-fluoro-1-[(2,4,6-trimethylphenyl)methyl]indole-2-carboxamide]	+++ (“+++” means <3 uM)
Cc1cc(C)c(Cn2c(C(=O)NS(=O)(=O)c3ccccc3)cc3c(C)cccc32)c(C)c1 [Compound 143, N-(benzenesulfonyl)-4-methyl-1-[(2,4,6-trimethylphenyl)methyl]indole-2-carboxamide]	+++ (“+++” means <3 uM)
